From patent EP3325465B1, “PESTICIDALLY ACTIVE PYRAZOLE DERIVATIVES” (Syngenta Participations AG, priority 2015, dated 2017) come the findings set out here.

Where two headings read alike, the source gives them in different places.

Assay type in all cases: in vivo
Test [1] relates to Diabrotica balteata, (Corn root worm). The experiment in a line: Diabrotica balteata maize sprout spray test, L2 larvae. As to conditions: 96 h. The source says: (§1) The pesticidal/insecticidal properties of the compounds according to embodiments 1 or 2 can be illustrated via the following tests: Spodoptera littoralis (Egyptian cotton leaf worm) • Cotton leaf discs were placed onto agar in 24-well microtiter plates and sprayed with aqueous test solutions prepared from 10'000 ppm DMSO stock solutions. After drying the leaf discs were infested with five L1 larvae. […] Plutella xylostella (Diamond back moth): 24-well microtiter plates with artificial diet were treated with aqueous test solutions prepared from 10'000 ppm DMSO stock solutions by pipetting. After drying, the plates were infested with L2 larvae (10 to 15 per well). The samples were assessed for mortality and growth inhibition in comparison to untreated samples 5 days after infestation. […] Diabrotica balteata, (Corn root worm) • Maize sprouts placed onto an agar layer in 24-well microtiter plates were treated with aqueous test solutions prepared from 10'000 ppm DMSO stock solutions by spraying. After drying, the plates were infested with L2 larvae (6 to 10 per well). […] Thrips tabaci (Onion thrips): Sunflower leaf discs were placed on agar in 24-well microtiter plates and sprayed with aqueous test solutions prepared from 10'000 ppm DMSO stock solutions. After drying the leaf discs were infested with a thrips population of mixed ages. The samples were assessed for mortality 6 days after infestation. […] Tetranychus urticae (Two-spotted spider mite): Bean leaf discs on agar in 24-well microtiter plates were sprayed with aqueous test solutions prepared from 10'000 ppm DMSO stock solutions. After drying the leaf discs were infested with a mite population of mixed ages. The samples were assessed for mortality on mixed population (mobile stages) 8 days after infestation. […] Euschistus heros (Neotropical Brown Stink Bug): • Two weeks old soybean plants were sprayed in a turn table spray chamber with the diluted spray solutions. After drying 2 soybean seeds were added and plants were infested with 10 N2 nymphs of the neotropical brown stink bug Euschistus heros in plastic test boxes. The samples were assessed for mortality in comparison to untreated samples 5 days after infestation. • The following compounds gave at least 80% mortality of Euschistus heros at an application rate of 12.5 ppm: Compounds 3 , 4 , 8 , 39 , 43 , 44 , 46 , 75 , 76 , 77 , 78 , 79 , 80 , 81 , 82 , 88 , 90 , 93 and 95 . Myzus persicae (Green peach aphid): Sunflower leaf discs were placed on agar in a 24-well microtiter plate and sprayed with test solutions at an application rate of 200 ppm. After drying, the leaf discs were infested with an aphid population of mixed ages. After an incubation period of 6 DAT, samples were checked for mortality. The following compounds gave at least 50% mortality of Myzus persicae: Compounds 3 , 4 , 8 , 43 , 44 , 75 , 76 , 77 , 80 , 81 , 90 and 92 . Myzus persicae (Green peach aphid): • Test compounds were applied by pipette into 24 well plates and mixed with Sucrose solution. Application rate: 12.5ppm. The plates were closed with a stretched parafilm. A plastic stencil with 24 holes is placed onto the plate and infested pea seedlings were placed directly on the Parafilm. The infested plate is closed with a gel blotting paper and another plastic stencil and then turned upside down. […]

The test system of test [2] is Plutella xylostella (Diamond back moth). In words: Plutella xylostella artificial diet test, L2 larvae. The note with it: 120 h, application rate of 200 ppm, mortality and growth inhibition 5 days after infestation.
From the text: as §1

For test [3], the system named is Spodoptera littoralis (Egyptian cotton leaf worm). The experiment in a line: Spodoptera littoralis cotton leaf disc spray test, L1 larvae. The note with it: foliar, 72 h.
From the text: as §1

The test system of test [4] is Tetranychus urticae (Two-spotted spider mite). The experiment in a line: Tetranychus urticae bean leaf disc spray test. As to conditions: foliar, 192 h, application rate of 200 ppm, mortality on mixed population (mobile stages) 8 days after infestation.
From the text: as §1

The subject of test [5] is Thrips tabaci (Onion thrips). In words: Thrips tabaci sunflower leaf disc spray test. The note with it: foliar, 144 h, application rate of 200 ppm, mortality 6 days after infestation, mixed ages.
From the text: as §1

Setting [6] is: application rate of 200 ppm, 4 days after infestation, L2 larvae, read-out: mortality.
[7] abbreviates: application rate of 200 ppm, 3 days after infestation, L1 larvae, read-out: mortality.

As a reminder, the mortality is the share of the test organisms that died. `Cn1nc(C(F)(F)C(F)(F)F)c(C(F)(F)F)c1-c1noc(-c2ccc(Cl)c(C(=O)NC3CC3)c2)n1` [Compound 9, 2-chloro-N-cyclopropyl-5-[3-[2-methyl-5-(1,1 ,2,2,2-pentafluoroethyl)-4-(trifluoromethyl)pyrazol-3-yl]-1,2,4-oxadiazol-5-yl]benzamide]: the mortality at 200 ppm in test [1] (setting [6]) was not below 80%.

As usually defined, the pest or weed control is how far the test organism was held down. A higher pest or weed control goes with strong suppression. With `Cn1nc(C(F)(F)C(F)(F)F)c(C(F)(F)F)c1-c1nc(-c2ccc(Cl)c(C(=O)NC3CC3)c2)no1` [Compound 21, 2-chloro-N-cyclopropyl-5-[5-[2-methyl-5-(1,1,2,2,2-pentafluoroethyl)-4-(trifluoromethyl)pyrazol-3-yl]-1,2,4-oxadiazol-3-yl]benzamide], in test [2], the pest or weed control at 200 ppm is not below 80%.

Regarding `Cn1nc(C(F)(F)C(F)(F)F)c(C(F)(F)F)c1-c1ncn(-c2ccc(Cl)c(C(=O)NC3CC3)c2)n1` [Compound 35, 2-chloro-N-cyclopropyl-5-[3-[2-methyl-5-(1,1,2,2,2-pentafluoroethyl)-4-(trifluoromethyl)pyrazol-3-yl]-1,2,4-triazol-1-yl]benzamide], the pest or weed control at 200 ppm in test [2] is not below 80%. Further, the mortality at 200 ppm in test [3] (setting [7]) is not below 80%.

Take `Cn1nc(-c2c(C(F)(F)F)c(C(F)(F)C(F)(F)F)nn2C)cc1-c1ccc(Cl)c(C(=O)NC2CC2)c1` [Compound 41, 2-chloro-N-cyclopropyl-5-[2-methyl-5-[2-methyl-5-(1,1,2,2,2-pentafluoroethyl)-4-(trifluoromethyl)pyrazol-3-yl]pyrazol-3-yl]benzamide]: the pest or weed control at 200 ppm in test [2], in test [4] and in test [5] was not below 80% each time. Further, the mortality at 200 ppm in test [1] (setting [6]) and in test [3] (setting [7]) was not below 80% each time.

The molecule `Cn1nc(C(F)(F)C(F)(F)F)c(C(F)(F)F)c1-c1ncc(-c2ccc(Cl)c(C(=O)NC3CC3)c2)s1` [Compound 47, 2-chloro-N-cyclopropyl-5-[2-[2-methyl-5-(1,1 ,2,2,2-pentafluoroethyl)-4-(trifluoromethyl)pyrazol-3-yl]thiazol-5-yl]benzamide] gave a pest or weed control at 200 ppm in test [2] not below 80%. Also, the mortality at 200 ppm in test [1] (setting [6]) and in test [3] (setting [7]) was not below 80% throughout.

As for `Cn1nc(C(F)(F)C(F)(F)F)c(C(F)(F)F)c1-c1ncc(-c2ccc(Cl)c(C(=O)NC3(C#N)CC3)c2)s1` [Compound 48, 2-chloro-N-(1-cyanocyclopropyl)-5-[2-[2-methyl-5-(1,1,2,2,2-pentafluoroethyl)-4-(trifluoromethyl)pyrazol-3-yl]thiazol-5-yl]benzamide], the pest or weed control at 200 ppm in test [2], in test [4] and in test [5] was not below 80% each time. Also, the mortality at 200 ppm in test [1] (setting [6]) and in test [3] (setting [7]) was not below 80% each time.

For the molecule `Cn1nc(C(F)(F)C(F)(F)F)c(C(F)(F)F)c1-c1csc(-c2ccc(Cl)c(C(=O)NC3CC3)c2)n1` [Compound 49, 2-chloro-N-cyclopropyl-5-[4-[2-methyl-5-(1,1 ,2,2,2-pentafluoroethyl)-4-(trifluoromethyl)pyrazol-3-yl]thiazol-2-yl]benzamide], the pest or weed control at 200 ppm in test [2] is not below 80%. In addition, the mortality at 200 ppm in test [1] (setting [6]) and in test [3] (setting [7]) was not below 80% each time.

The molecule `Cn1nc(C(F)(F)C(F)(F)F)c(C(F)(F)F)c1-c1nc(-c2ccc(Cl)c(C(=O)NC3CC3)c2)cs1` [Compound 53, 2-chloro-N-cyclopropyl-5-[2-[2-methyl-5-(1,1 ,2,2,2-pentafluoroethyl)-4-(trifluoromethyl)pyrazol-3-yl]thiazol-4-yl]benzamide] gave a pest or weed control at 200 ppm in test [2] not below 80%.

Take `Cn1nc(C(F)(F)C(F)(F)F)c(C(F)(F)F)c1-c1nc(-c2ccc(Cl)c(C(=O)NC3(C#N)CC3)c2)cs1` [Compound 54, 2-chloro-N-(1-cyanocyclopropyl)-5-[2-[2-methyl-5-(1,1,2,2,2-pentafluoroethyl)-4-(trifluoromethyl)pyrazol-3-yl]thiazol-4-yl]benzamide]: the pest or weed control at 200 ppm in test [2], in test [4] and in test [5] was not below 80% throughout. The mortality at 200 ppm in test [1] and in test [3] was not below 80% each time.

`Cn1nc(C(F)(F)C(F)(F)F)c(C(F)(F)F)c1-c1c[nH]c(-c2ccc(Cl)c(C(=O)NC3(C#N)CC3)c2)n1` [Compound 70, 2-chloro-N-(1-cyanocyclopropyl)-5-[4-[2-methyl-5-(1,1,2,2,2-pentafluoroethyl)-4-(trifluoromethyl)pyrazol-3-yl]-1H-imidazol-2-yl]benzamide] came in with a pest or weed control at 200 ppm in test [2] not below 80%.

For the molecule `Cn1nc(C(F)(F)C(F)(F)F)c(C(F)(F)F)c1-c1cc(-c2ccc(Cl)c(C(=O)NC3CC3)c2)[nH]n1` [Compound 73, 2-chloro-N-cyclopropyl-5-[3-[2-methyl-5-(1,1,2,2,2-pentafluoroethyl)-4-(trifluoromethyl)pyrazol-3-yl]-1H-pyrazol-5-yl]benzamide], the pest or weed control at 200 ppm in test [4] was not below 80%. For the same molecule, the mortality at 200 ppm in test [3] (setting [7]) is not below 80%.

Consider `Cn1nc(C(F)(F)C(F)(F)F)c(C(F)(F)F)c1-c1cc(-c2ccc(Cl)c(C(=O)NCCC(F)(F)F)c2)on1` [Compound 83, 2-chloro-5-[3-[2-methyl-5-(1,1,2,2,2-pentafluoroethyl)-4-(trifluoromethyl)pyrazol-3-yl]isoxazol-5-yl]-N-(3,3,3-trifluoropropyl)benzamide], for which the pest or weed control at 200 ppm in test [2] and in test [5] was not below 80% throughout. Moreover, the mortality at 200 ppm in test [1] (setting [6]) and in test [3] (setting [7]) was not below 80% each time.

For the molecule `Cn1nc(C(F)(F)C(F)(F)F)c(C(F)(F)F)c1-c1cc(-c2ccc(Cl)c(C(=O)NCC=C(Cl)Cl)c2)on1` [Compound 84, 2-chloro-N-(3,3-dichloroallyl)-5-[3-[2-methyl-5-(1,1,2,2,2-pentafluoroethyl)-4-(trifluoromethyl)pyrazol-3-yl]isoxazol-5-yl]benzamide], the pest or weed control at 200 ppm in test [2], in test [4] and in test [5] was not below 80% throughout. In addition, the mortality at 200 ppm in test [1] (setting [6]) is not below 80%.

In test [4], `Cn1nc(C(F)(F)C(F)(F)F)c(C(F)(F)F)c1-c1cc(-c2ccc(Cl)c(C(=O)Nc3ccc(Cl)cc3)c2)on1` [Compound 85, 2-chloro-N-(4-chlorophenyl)-5-[3-[2-methyl-5-(1,1,2,2,2-pentafluoroethyl)-4-(trifluoromethyl)pyrazol-3-yl]isoxazol-5-yl]benzamide] came in with a pest or weed control at 200 ppm not below 80%.

With `C=C(F)CNC(=O)c1cc(-c2cc(-c3c(C(F)(F)F)c(C(F)(F)C(F)(F)F)nn3C)no2)ccc1Cl` [Compound 86, 2-ch loro-N-(2-fluoroallyl)-5-[3-[2-methyl-5-(1,1,2,2,2-pentafluoroethyl)-4-(trifluoromethyl)pyrazol-3-yl]isoxazol-5-yl]benzamide], the pest or weed control at 200 ppm in test [2], in test [4] and in test [5] was not below 80% throughout. In addition, the mortality at 200 ppm in test [1] (setting [6]) and in test [3] (setting [7]) was not below 80% in each case.

On to `Cn1nc(C(F)(F)C(F)(F)F)c(C(F)(F)F)c1-c1cc(-c2ccc(Cl)c(C(=O)NCc3ccccc3)c2)on1` [Compound 91, N-benzyl-2-chloro-5-[3-[2-methyl-5-(1,1,2,2,2-pentafluoroethyl)-4-(trifluoromethyl)pyrazol-3-yl]isoxazol-5-yl]benzamide], for which the pest or weed control at 200 ppm in test [2], in test [4] and in test [5] was not below 80% in each case. Moreover, the mortality at 200 ppm in test [1] (setting [6]) is not below 80%.
